Tested on: mesenchymal stem cells (MSCs)
Assay: MSC viability, trypan blue exclusion
Assay type: cell-based, human
Procedure: Cytocompatibility. The cytocompatibility of prodrugs generated from small modification of known drugs was investigated. […] To test the cyto compatibility of prodrug-based amphiphiles and bolaamphiphiles, and their effect on cell characteristics such as viability, proliferation, adhesion and cell phenotype, a series of experiments was performed with mesenchymal stem cells (MSCs). To gain more insight into the effect of modification, unmodified drug Apn was used as a control. The viability of control cells and cells treated with Apn, Apn-7-COOH and Apn-8-Apn was examined with trypan blue assay. Use of Mesenchymal stem cells is appropriate given that these systems may be used for localized release likely into connective tissues.
Mesenchymal Stem Cell Culture. Primary human mesenchymal stem cells were maintained in expansion media that consisted of 15% Fetal Bovine Serum (selected for its ability to expand MSCs), 1% (v/v) L-Glutamine, 1% (v/v) Penn-Strep, and α-MEM. All experiments were performed using MSCs at passage number 4-6.
Viability, Adhesion and Proliferation Characteristics. The viability of the cells was examined using trypan blue exclusion. […] The media was then aspirated and the cells were detached with 200 μL of cell dissociated solution (similar quantities of floating cells were observed between the groups, typically 5-10 per well). 300 μL of media was added and the total 500 μL of the cell dispersion was collected in an eppendorf tubes. From this 10 μL of cell dispersion was diluted to 1:1 with 4% trypan blue solution and cells were counted in a hemocytometer to determine the number viable (non-blue) and nonviable (blue) cells. A control for this experiment included cells treated with only phosphate buffer saline (PBS) without an amphiphile. Cell adhesion was quantified by measuring the number of adherent cells on tissue culture surfaces in 96 well plates after incubating with amphiphiles for 12 hours. For proliferation studies, 5000 cells were added to each well of a 96 well plate in 200 μL of MSC cell expansion media, and appropriate amphiphiles were then added and incubated at 37° C. and 5% CO2. Proliferation was quantified by manually tabulating the number of cells within the flask at multiple time points (1, 2, 3, 4, 6 and 8 days) with light microscopy at 10×.

CC(=O)Nc1ccc(OC(=O)CCCCCCC(=O)O)cc1 [Apn-7-COOH]
viable cells (250 μM, 48 hours incubation): 87%
viability rates over concentration range (up to 500 μM, 48 hours): not significantly affected

Source: patent US11458153B2, “Drug delivery composition comprising a self-assembled gelator” (The Brigham and Women's Hospital, Inc., priority 2008, dated 2022)
